Measurements published in patent US9320745B2, “Use of cholest-4-en-3-one derivatives for obtaining a cytoprotective drug” (TROPHOS, priority 2006, dated 2016).

Key:
[1] = test system: monkeys; assay: Toxicological study in monkeys; type: in vivo; conditions: oral, increasing daily doses up to 1,500 mg/kg over 10 days
[2] = test system: caspase-3; assay: Apoptosis by caspase-3 activity measurement in doxorubicin-exposed cardiomyocytes; type: cell-based, rabbit; conditions: 8 hrs after exposure, control 18±9 fmol/min
Procedure: (§1) Isolated ventricular cells are obtained from New Zealand male rabbit hearts as described in A. d'Anglemont de Tassigny et al., Fund. Clin. Pharmacol., 18: pp. 531-38, 2004. Briefly, the rabbits (2.0-2.5 kg) are anaesthesized with a pentobarbital (50 mg/kg) solution and then receive heparin (200 IU/kg). The hearts are excised and immediately perfused, for 10-15 minutes by means of a Langendorff apparatus without recirculation with an oxygenated (calcium-free) tyrode isotonic solution (95%, 2-5% CO2) (in mM: NaCl 135, KCl 5.4, Na2PO4 0.33, MgCl2 1.0, HEPES 10, pH adjusted to 7.4 with 1N NaOH at 37° C., 280-300 mOsmol/kgH2O). Next, all the hearts were perfused for 3 minutes in a “recirculation” mode with the same calcium-free Tyrode solution (coronary flow rate, 10-15 mL/min) added with 1 mg/mL of type II collagenase and 0.28 mg/mL of type XIV protease. Finally all the hearts are perfused in a mode without recirculation with the same solution of Tyrode supplemented with 0.3 mM CaCl2 for 10 min. The left ventricle is removed and cut into small pieces; cell dissociation is achieved by mild mechanical stirring. Extracellular calcium is added by increments every 15 minutes, in order to reach a physiological concentration of 1.0 mM. The isolated myocytes are maintained in a medium without serum containing (in mM) NaCl 110, KCl 5.4, Na2PO4 0.33, NaHCO3 25, Glucose 5, MgCl2 0.8, CaCl2 1, pH adjusted to 7.4, right up to 1 h30 before experimentation.
Caspase-3 activity is used as a quantitative method for measuring apoptosis. Briefly, the cells are lysed and the supernatant is used for caspase-3 activity measurement by using the AK-005 kit (Biomol Research Laboratories, Plymouth Meeting, Pa., USA). The fluorogenic substrate for measuring caspase-3 activity (DEVD) is marked with the fluorochrome, 7-amino-4-methyl coumarin (AMC) which produces […] fluorescence detectable in UV light at 360/460 nm for 210 min. AMC is released from the substrate by cleavage by caspase-3, the expression of the enzyme is expressed in fmol/min.
Apoptosis is induced in isolated cardiomyocytes by exposing them for 3 to 8 hrs to 1 μM of doxorubicin added in an isotonic solution containing (in mM) NaCl 110, KCl 5.4, Na2PO4 0.33, NaHCO3 25, Glucose 5, MgCl2 0.8, CaCl2 1, pH adjusted to 7.4. Annexin V marking was carried out 3 hrs after the beginning of exposure to doxorubicin since this phenomenon appears very early in the apoptotic cascade. Caspase-3 activity measurements were conducted 8 hrs after exposure to doxorubicin since this phenomenon takes place later in the apoptosis phenomenon. The contractility of cardiomyocytes was measured every hour during the 8 hrs of exposure to doxorubicin. After all the treatments, the cells were compared with control cardiomyocytes not exposed to doxorubicin. […]

[3] = test system: Male CD1 adult mice; assay: In vivo model of acute hepatotoxicity induced by Jo2 anti-Fas antibody (ALAT assay, survival)
Text: An acute hepatic damage model may be induced by a single injection of the Jo2 anti-Fas antibody (Ogasawara et al., Nature, August 1993), producing severe hepatic damages and resembling viral, auto-immune or drug-induced hepatitis.
Alanine Aminotransferase (ALAT) also called Serum Glutamic Pyruvic Transaminase (SGPT) is an enzyme present in hepatocytes.
The conducted experimentation consisted in intoxicating animals with Jo2 followed by an assay of ALATs and of testing the cholest-4-en-3-one oxime capability of protecting hepatocytes.
Male CD1 adult mice from the breeder “Elevage Janvier”, (Le Genest-Saint-Isle, France) were used. The animals were identified individually and had free access to water and food.
The stock solution of monoclonal hamster anti-mouse CD95 (Fas) antibody called Jo2, from Pharmingen (BD Biosciences, ref. 554254 batch 66081) is at a concentration of 1 mg/mL in water. The dilutions used are produced in 0.9% sodium chloride in water.
The desired amount of cholest-4-en-3-one oxime is weighed and milled into a fine powder, and then suspended (60 mg/ml) in maize oil. The compound is administered orally (by force-feeding) at a concentration of 5 ml/kg.
A pre-treatment with cholest-4-en-3-one oxime is carried out at a dose of 300 mg/kg per oral administration 4 hrs before administering the Jo2 antibody. […]

[4] = test system: mice; assay: Toxicological study in mice; type: in vivo; conditions: oral, sub-cutaneous, intra-peritoneal and intravenous routes, doses up to 300 mg/kg/day, daily, as far as 28 days
[5] = test system: rabbit ventricular cardiomyocytes; assay: Contractile dysfunction test induced by doxorubicin (sarcomere shortening of isolated cardiomyocytes); type: cell-based
Procedure: as §1
The myocytes are transferred into a chamber at 37° C., continuously perfused and positioned on the stage of an inverted microscope. The chamber is perfused with a physiological buffer containing (in mM): NaCl-140; KCl 5.4; CaCl2 1; MgCl2 0.8; HEPES 10 and glucose 5.6 (pH=7.4; 290 mOsmol/kgH2O).
Contraction of the myocytes is induced once a second (1 Hz) with platinum field electrodes placed in the chamber and connected to a simulator. The images are captured continuously with a ×20 objective and transmitted to a CCD camera at a rate of 240 samples/s. […]
The myocytes were selected for the study according to the following criterion: a rod-like aspect with very apparent striations and no intracellular vacuola, no spontaneous contraction when they are stimulated with 1 mM Ca^2+, and with constant rest length and contraction amplitude. The length of the sarcomers was measured by a video image analysis program and the data were captured at a rate of 240 samples/s. […]
Apoptosis is induced in isolated cardiomyocytes by exposing them for 3 to 8 hrs to 1 μM of doxorubicin added in an isotonic solution containing (in mM) NaCl 110, KCl 5.4, Na2PO4 0.33, NaHCO3 25, Glucose 5, MgCl2 0.8, CaCl2 1, pH adjusted to 7.4. […] The contractility of cardiomyocytes was measured every hour during the 8 hrs of exposure to doxorubicin. […]

[6] = test system: rabbit ventricular cardiomyocytes; assay: Apoptosis by annexin V marking in doxorubicin-exposed cardiomyocytes; type: cell-based; conditions: 3 hrs after doxorubicin, control 100%
Procedure: as §1
Marking phosphatidylserine with annexin V was used as a quantitative method for measuring apoptosis by using the MiniMacs cell isolation kit (Miltenyi Biotec, Bergisch, Gladbach, Germany). Briefly, the cells exposing phosphatidylserine are marked with annexin V microbeads magnetically, and then passed into a column placed in a magnetic field. The marked cells (which have magnetically marked phosphatidylserine) are retained in the column whereas the non-marked ones (necrotic cells and non-apoptotic cells) are not retained. The column is removed from the magnetic field; the magnetically retained cells exposing phosphatidylserine are eluted as a positive fraction and counted with a Mallassez cell counter. The percentage of apoptotic cells is then referred to the initial number of cells.
Apoptosis is induced in isolated cardiomyocytes by exposing them for 3 to 8 hrs to 1 μM of doxorubicin added in an isotonic solution containing (in mM) NaCl 110, KCl 5.4, Na2PO4 0.33, NaHCO3 25, Glucose 5, MgCl2 0.8, CaCl2 1, pH adjusted to 7.4. Annexin V marking was carried out 3 hrs after the beginning of exposure to doxorubicin since this phenomenon appears very early in the apoptotic cascade. […] The contractility of cardiomyocytes was measured every hour during the 8 hrs of exposure to doxorubicin. […]

shortening of the peak relatively to the base line ([5]; 1 μM doxorubicin alone, after 4 hours of exposure, control −19.49±2.06%, n=5) [%]	SMILES	toxicity [1]	caspase-3 activity ([2]; doxorubicin + 0.3 μM compound) [fmol/min]	caspase-3 activity ([2]; doxorubicin + 1 μM compound) [fmol/min]	caspase-3 activity ([2]; doxorubicin + 3 μM compound) [fmol/min]	ALAT activity (U/L) Mean +/− SEM (n) ([3]; 300 mg/kg oral 4 hrs before Jo2 125 μg/kg i.p., measured 24 hrs after Jo2, control 2,586 ± 474, p = 0.0037)	death of mice within 24 hrs following the Jo2 injection ([3]; 300 mg/kg oral, 4 hrs before the Jo2 antibody)	toxicity [4]	shortening of the peak relatively to the base line ([5]; 0.3 μM compound, 15 min pretreatment, 1 μM doxorubicin, after 4 hrs of exposure) [%]	shortening of the peak relatively to the base line ([5]; 1 μM compound, 15 min pretreatment, 1 μM doxorubicin, after 4 hrs of exposure) [%]	shortening of the peak relatively to the base line ([5]; 3 μM compound, 15 min pretreatment, 1 μM doxorubicin, after 4 hrs of exposure) [%]	change in % of annexin V marking ([6]; doxorubicin + 0.3 μM compound) [%]	change in % of annexin V marking ([6]; doxorubicin + 1 μM compound) [%]	change in % of annexin V marking ([6]; doxorubicin + 3 μM compound) [%]	caspase-3 activity ([2]; 1 μM doxorubicin alone) [fmol/min]	change in % of annexin V marking ([6]; 1 μM doxorubicin alone) [%]
	CC(C)CCC[C@@H](C)[C@H]1CC[C@H]2[C@@H]3CCC4=CC(=NO)CC[C@]4(C)[C@H]3CC[C@]12C [cholest-4-en-3-one oxime]	did not reveal any toxicity	33 ± 9	18 ± 8	11 ± 4	1,136 ± 175 (20) U/L	prevent the death of mice	did not show any significant toxicity	−25.35±0.18	−15.66±5.72	−13.95±3.17	130	121	115.5		
−53.20±7.70	COc1cccc2c1C(=O)c1c(O)c3c(c(O)c1C2=O)C[C@@](O)(C(=O)CO)C[C@@H]3O[C@H]1C[C@H](N)[C@H](O)[C@H](C)O1 [doxorubicin, reference compound]														120 ± 15	291
